Measurements reported in patent US20240216372A1, “THERAPEUTICS FOR KELOIDS AND OTHER FIBROTIC DISORDERS” (Florida State University Research Foundation, Inc., priority 2022, published 2024).

Tests used:
[1] = test system: keloid dermal fibroblasts; experiment: keloid fibroblast proliferation; format: cell-based, human; details: for sensitivity of keloid fibroblasts compared to normal HDFs: keloid fibroblasts versus normal HDFs; for effect on keloid fibroblast proliferation / sensitivity of keloid dermal fibroblasts to the drug (effective concentration range): patient-derived keloid dermal fibroblasts
[2] = test system: Insulin-like Growth Factor 2 (IGF2) signaling; details: general statement, no test described; cited from earlier work
[3] = test system: normal primary human dermal fibroblasts (HDFs); experiment: normal HDF proliferation; format: cell-based

SMILES | sensitivity of keloid fibroblasts compared to normal HDFs [1] | effective range as inhibitor of IGF2 signaling [2] | effect on keloid fibroblast proliferation [1] | sensitivity of keloid dermal fibroblasts to the drug (effective concentration range) [1] | sensitivity / proliferation of normal HDFs [3]
CNC(=O)Nc1ccc2c(c1)CC[C@@]21OC(=O)N(CC(=O)N(Cc2ccc(F)cc2)[C@@H](C)C(F)(F)F)C1=O [A485] | much more sensitive | – | – | – | –
CN(C)c1ccc2c(c1)OC(N)=C(C#N)C2c1cccc(C(F)(F)F)c1 (stereo not drawn) [Chromeceptin] | – | low nanomolar range | blocks keloid fibroblast proliferation | sensitive | –
COc1cc(/C=C/C(=O)CC(=O)/C=C/c2ccc(O)c(OC)c2)ccc1O [Curcumin] | much more sensitive | – | – | – | –
O=C(O)C(=O)c1cn(Cc2ccccc2)c2ccc(-c3ccc(OC(F)(F)F)cc3)cc12 [Tiplaxtinin] | preferentially blocks keloid fibroblast proliferation over normal HDF proliferation | – | – | low micromolar range | not significantly sensitive
COc1ccc(CCN(C)CCCC(C#N)(c2ccc(OC)c(OC)c2)C(C)C)cc1OC (stereo not drawn) [Verapamil] | – | – | inhibits the proliferation of keloid fibroblasts | – | –
